Test results taken from paper PMC12648627, “Structural and functional characterization of a metagenomically derived γ‐type carbonic anhydrase and its engineering into a hyperthermostable esterase” (Protein Science : A Publication of the Protein Society, 2025).

Tests used:
γ-CaCAmut [1] = molecular target: T1, γ-CaCAmut (Caloramator australicus, UniProt G0V3M6, V46E/T67E/G68E/Y159N, form not given); experiment: spectrophotometric p-nitrophenol release at […] nm; format: biochemical; settings: 0.1 M KH2PO4, pH 8.0, 25°C; 0.4-3.5 mM p-NPA; esterase activity
T1 construct: gene CAAU_0066
T1 sequence (G0V3M6 1-167 G68E/T67E/V46E/Y159N limits assumed): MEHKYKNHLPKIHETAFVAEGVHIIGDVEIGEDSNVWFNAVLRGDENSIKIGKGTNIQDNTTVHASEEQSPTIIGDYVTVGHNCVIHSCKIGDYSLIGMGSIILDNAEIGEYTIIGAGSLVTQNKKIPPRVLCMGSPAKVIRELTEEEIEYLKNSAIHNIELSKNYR

γ-CaCAmut [2] = molecular target: T1, γ-CaCAmut; settings: pNPA as substrate, 25°C; 1 mM inhibitor

| Km (γ-CaCAmut [1]) [µM] | SMILES | % inhibition at 1 mM (γ-CaCAmut [2]) |
| --- | --- | --- |
| 960 ± 50 | CC(=O)Oc1ccc([N+](=O)[O-])cc1 [p-nitrophenyl acetate] |  |
|  | Nc1ccc(S(N)(=O)=O)cc1 [sulfanilamide] | Inhibition of γ‐CaCAmut by three common diagnostic CA inhibitors (sulfanilamide, azide, and EDTA) |
